# BindingDB's records for doi:10.1021/jm00174a017 (Alter, 1991)
# Assay: Tested for inhibition of [3H]PAF binding to rabbit Platelet activating factor receptor
row,SMILES,Ki
1,CCOC(=O)C1C(C)=NC(C)=C(C(=O)OCCSC)C1C (stereo not given),1040 nM
2,CC1=NC(C)=C(C(=O)OCCSc2ccccc2)C(C)C1C(=O)OCC1CCCO1 (stereo not given),2090 nM
3,CCOC(=O)C1C(C)=NC(C)=C(C(=O)OCCSCC)C1C (stereo not given),1000 nM
4,CC1=NC(C)=C(C(=O)OCCSc2ccccc2)C(C)C1C(=O)OC(C)C (stereo not given),913 nM
5,COC(=O)C1C(C)=NC(C)=C(C(=O)OCCSc2ccccc2)C1C (stereo not given),15 nM
6,COCCOC(=O)C1C(C)=NC(C)=C(C(=O)OCCSC)C1C (stereo not given),4410 nM
7,CCSCCOC(=O)C1=C(C)N=C(C)C(C(=O)OC)C1C (stereo not given),505 nM

# Further lines, results first:
row,Ki,SMILES
1,603 nM,COC(=O)C1C(C)=NC(C)=C(C(=O)OCCSC)C1C (stereo not given)
2,69 nM,CCOC(=O)C1C(C)=NC(C)=C(C(=O)OCCSc2ccccc2)C1C (stereo not given)
3,1010 nM,CCOC(=O)C1C(C)=NC(C)=C(C(=O)OCCSC)C1CC (stereo not given)
